The results in this text go back to patent publication US9128108B2, “Mephedrone detection” (Randox Laboratories Limted, priority 2010, dated 2015).

The test relates to raised antibody (polyclonal IgG raised against Immunogen 1, Hapten 1-BSA). Description: Competitive ELISA with Hapten 1-HRP conjugate confirming binding of raised antibody. The arrangement: species or system sheep. The settings on record: for binding of raised antibody (in words): competitive immunoassay at different antibody and conjugate concentrations; for Standard Absorb. / % Drop: standard 100 ng/ml; for Standard Absorb.: absorbance at 450 nm; for % Drop: drop of absorbance versus zero standard. On the procedure:
The process of developing an immunoassay is well known to the person skilled in the art. Briefly, for a competitive immunoassay in which the target analyte is a non-immunogenic molecule such as a hapten, the following process is conducted: antibodies are produced by immunising an animal, preferably a mammalian animal, by repeated administration of an immunogen. The serum from the immunised animal is collected when the antibody titre is sufficiently high. A conjugate is added to a sample containing the target analyte and the raised antibodies, and the conjugate and analyte compete for binding to the antibodies. The process may comprise fixing said serum antibodies to a backing substrate such as a polystyrene solid support or a biochip. The antibodies can be polyclonal or monoclonal, monoclonal antibodies being obtainable from polyclonal sera using standard techniques. The signal emitted in the immunoassay is proportionate to the amount of conjugate bound to the antibodies which in turn is inversely proportionate to the analyte concentration. The signal can be detected or quantified by comparison with a calibrator.
Hapten 1 was conjugated to bovine serum albumin (BSA). The resulting immunogen (Immunogen 1) was administered to adult sheep on a monthly basis to provide target-specific polyclonal antisera. IgG was extracted from the antisera via caprylic acid/ammonium sulphate precipitation of immunoglobulin. Microtitre plates (Thermo Scientific, 468667) were coated with antibody (125 μl) in coating buffer (10 mM Tris pH 8.5) at 37° C. for 2 hours. The plates were then washed 4 times over 10 minutes with working strength TBST. 50 μl of sample/standard (Methcathinone, Sigma M-5037; Cathinone, Sigma C-3196 and Mephedrone, Randox LK973) was added to the appropriate wells in triplicate, followed by 75 μl of Hapten 1-HRP conjugate and incubated at 25° C. for 1 hour. The plates were then washed and 125 μl of TMB (Randox, 4380-15) was added to each well and left at room temperature for 20 mins in the dark. The reaction was stopped using 125 μl of 0.2M sulphuric acid. The absorbances were read at 450 nm with an ELISA microplate reader (BIO-TEK Instruments, Elx800) and the means calculated.
Competitive immunoassay results at different antibody and conjugate concentrations show the raised antibody binds to mephedrone, methcathinone and cathinone (Table 1).

Setting [1] is: antibody 1.25 ug/ml, Hapten 1-HRP conjugate dilution 1/8K, zero absorb. 1.986.
Setting [2] is: antibody 1.25 ug/ml, Hapten 1-HRP conjugate dilution 1/8K.
Where [3] appears, read: antibody 5 ug/ml, Hapten 1-HRP conjugate dilution 1/4K, zero absorb. 1.961.
Setting [4] is: antibody 5 ug/ml, Hapten 1-HRP conjugate dilution 1/4K.

For the compound `CNC(C)C(=O)c1ccc(C)cc1` (racemic) [Mephedrone, (RS)-2-methylamino-1-(4-methylphenyl)propan-1-one], the “binding of raised antibody (in words)” value is reported as “binds”. The “Standard Absorb.” value under setting [1] is 0.087. Besides, the “% Drop” value under setting [2] is 95.6%. Under setting [3], the “Standard Absorb.” value is recorded as 0.120. The “% Drop” value under setting [4] came out at 93.9%.
Turning to `C[C@H](N)C(=O)c1ccccc1` [Cathinone], the “binding of raised antibody (in words)” value was “binds”. Also, the “Standard Absorb.” value under setting [1] was 1.515. Moreover, under setting [2], the “% Drop” value turned out to be 23.7%. Further, the “Standard Absorb.” value under setting [3] came out at 1.600. Also, under setting [4], the “% Drop” value turned out to be 18.4%.
For `CNC(C)C(=O)c1ccccc1` (stereo not drawn) [Methcathinone, 2-methylamino-1-phenylpropan-1-one], in that order: “binds”, 0.169, 91.5%, 0.205 and 89.5%.
